Test results published in ChEMBL document CHEMBL1201862, “PubChem BioAssay data set” (2004).
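Method: 48-hour compound exposure of cells in 96-well plates, five concentrations, linear interpolation of endpoints. The concentration for 50% growth inhibition is given as GI50.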 Calls of active or inactive are those of the source. Cut-off read from the data, not from the text of the source: active = GI50 up to about 1.1 µM and inactive = higher. Non-standard residues stand in square brackets, D forms with d. Residues, ends and D or L forms follow the SMILES beside them. *: point of attachment. NMeF = CN[CH](Cc1ccccc1)C(=O)O; NMeV = CN[CH](C(=O)O)C(C)C; Boc = CC(C)(C)OC(=O)*

How the values were obtained:
Experiment in all cases: growth of human tumour cells (NCI), 48 h
UACC-62 = tested on: UACC-62
SNB-19 = tested on: SNB-19
K562 = tested on: K562
NCI-H522 = tested on: NCI-H522
SNB-78 = tested on: SNB-78
CCRF-CEM = tested on: CCRF-CEM
HOP-92 = tested on: HOP-92
NCI-H460 = tested on: NCI-H460
U-251 = tested on: U-251
UO-31 = tested on: UO-31
SF-539 = tested on: SF-539
HCC 2998 = tested on: HCC 2998
NCI-H23 = tested on: NCI-H23
OVCAR-3 = tested on: OVCAR-3
A498 = tested on: A498
HCT-116 = tested on: HCT-116
HL-60 = tested on: HL-60
SN12C = tested on: SN12C
M14 = tested on: M14
DLD-1 = tested on: DLD-1
TK-10 = tested on: TK-10
LOX IMVI = tested on: LOX IMVI
ACHN = tested on: ACHN
HOP-62 = tested on: HOP-62
IGROV-1 = tested on: IGROV-1
EKVX = tested on: EKVX
SK-MEL-2 = tested on: SK-MEL-2
UACC-257 = tested on: UACC-257
SF-268 = tested on: SF-268
DMS-114 = tested on: DMS-114
SW-620 = tested on: SW-620
CAKI-1 = tested on: CAKI-1
XF498 = tested on: XF498
LXFL 529 = tested on: LXFL 529
SK-MEL-5 = tested on: SK-MEL-5
KM-20L2 = tested on: KM-20L2
OVCAR-5 = tested on: OVCAR-5
HT-29 = tested on: HT-29
A549 = tested on: A549
SF-295 = tested on: SF-295
OVCAR-8 = tested on: OVCAR-8
SK-MEL-28 = tested on: SK-MEL-28
KM12 = tested on: KM12
M19-MEL = tested on: M19-MEL
RPMI-8226 = tested on: RPMI-8226
COLO 205 = tested on: COLO 205
MOLT-4 = tested on: MOLT-4
OVCAR-4 = tested on: OVCAR-4
SK-OV-3 = tested on: SK-OV-3
Malme-3M = tested on: Malme-3M
786-0 = tested on: 786-0
RXF 393 = tested on: RXF 393
HCT-15 = tested on: HCT-15
NCI-H226 = tested on: NCI-H226
DMS-273 = tested on: DMS-273
SR = tested on: SR

SMILES: CC1=NN(C(=O)c2ccc(Cl)cc2)C(=O)/C1=C/c1ccccc1O
- GI50 (UACC-62): > 100 µM (inactive)
- GI50 (SNB-19): > 100 µM (inactive)
- GI50 (K562): > 100 µM (inactive)
- GI50 (NCI-H522): > 100 µM (inactive)
- GI50 (SNB-78): > 100 µM (inactive)
- GI50 (CCRF-CEM): > 100 µM (inactive)
- GI50 (HOP-92): > 100 µM (inactive)
- GI50 (NCI-H460): > 100 µM (inactive)
- GI50 (U-251): > 100 µM (inactive)
- GI50 (UO-31): > 100 µM (inactive)
- GI50 (SF-539): > 100 µM (inactive)
- GI50 (HCC 2998): > 100 µM (inactive)
- GI50 (NCI-H23): > 100 µM (inactive)
- GI50 (OVCAR-3): > 100 µM (inactive)
- GI50 (A498): > 100 µM (inactive)
- GI50 (HCT-116): > 100 µM (inactive)
- GI50 (HL-60): > 100 µM (inactive)
- GI50 (SN12C): > 100 µM (inactive)
- GI50 (M14): > 100 µM (inactive)
- GI50 (DLD-1): > 100 µM (inactive)
- GI50 (TK-10): > 100 µM (inactive)
- GI50 (LOX IMVI): > 100 µM (inactive)
- GI50 (ACHN): > 100 µM (inactive)
- GI50 (HOP-62): > 100 µM (inactive)
- GI50 (IGROV-1): > 100 µM (inactive)
- GI50 (EKVX): > 100 µM (inactive)
- GI50 (SK-MEL-2): > 100 µM (inactive)
- GI50 (UACC-257): > 100 µM (inactive)
- GI50 (SF-268): > 100 µM (inactive)
- GI50 (DMS-114): > 100 µM (inactive)
- GI50 (SW-620): > 100 µM (inactive)
- GI50 (CAKI-1): > 100 µM (inactive)
- GI50 (XF498): > 100 µM (inactive)
- GI50 (LXFL 529): > 100 µM (inactive)
- GI50 (SK-MEL-5): > 100 µM (inactive)
- GI50 (KM-20L2): > 100 µM (inactive)
- GI50 (OVCAR-5): > 100 µM (inactive)
- GI50 (HT-29): > 100 µM (inactive)
- GI50 (A549): > 100 µM (inactive)
- GI50 (SF-295): > 100 µM (inactive)
- GI50 (OVCAR-8): > 100 µM (inactive)
- GI50 (SK-MEL-28): > 100 µM (inactive)
- GI50 (KM12): > 100 µM (inactive)
- GI50 (M19-MEL): > 100 µM (inactive)
- GI50 (RPMI-8226): > 100 µM (inactive)
- GI50 (COLO 205): > 100 µM (inactive)
- GI50 (MOLT-4): > 100 µM (inactive)
- GI50 (OVCAR-4): > 100 µM (inactive)
- GI50 (SK-OV-3): > 100 µM (inactive)
- GI50 (Malme-3M): > 100 µM (inactive)
- GI50 (786-0): > 100 µM (inactive)
- GI50 (RXF 393): > 100 µM (inactive)
- GI50 (HCT-15): > 100 µM

SMILES: CC(C)C(NC(=O)OC(C)(C)C)C(=O)N(C)C(Cc1ccccc1)C(=O)N(C)C(C(=O)N(C)C(C(=O)O)C(C)C)C(C)C (stereo not given) (Boc-V[NMeF][NMeV][NMeV]-OH; configuration not given here)
- GI50 (UACC-62): > 100 µM (inactive)
- GI50 (SNB-19): > 100 µM (inactive)
- GI50 (K562): > 100 µM (inactive)
- GI50 (NCI-H522): > 100 µM (inactive)
- GI50 (CCRF-CEM): > 100 µM (inactive)
- GI50 (NCI-H460): > 100 µM (inactive)
- GI50 (U-251): > 100 µM (inactive)
- GI50 (UO-31): > 100 µM (inactive)
- GI50 (SF-539): > 100 µM (inactive)
- GI50 (HCC 2998): > 100 µM (inactive)
- GI50 (NCI-H23): > 100 µM (inactive)
- GI50 (OVCAR-3): > 100 µM (inactive)
- GI50 (HCT-116): > 100 µM (inactive)
- GI50 (HL-60): > 100 µM (inactive)
- GI50 (SN12C): > 100 µM (inactive)
- GI50 (NCI-H226): > 100 µM (inactive)
- GI50 (M14): > 100 µM (inactive)
- GI50 (TK-10): > 100 µM (inactive)
- GI50 (LOX IMVI): > 100 µM (inactive)
- GI50 (ACHN): > 100 µM (inactive)
- GI50 (DMS-273): > 100 µM (inactive)
- GI50 (HOP-62): > 100 µM (inactive)
- GI50 (IGROV-1): > 100 µM (inactive)
- GI50 (EKVX): > 100 µM (inactive)
- GI50 (UACC-257): > 100 µM (inactive)
- GI50 (SF-268): > 100 µM (inactive)
- GI50 (DMS-114): > 100 µM (inactive)
- GI50 (SW-620): > 100 µM (inactive)
- GI50 (XF498): > 100 µM (inactive)
- GI50 (LXFL 529): > 100 µM (inactive)
- GI50 (SK-MEL-5): > 100 µM (inactive)
- GI50 (KM-20L2): > 100 µM (inactive)
- GI50 (HT-29): > 100 µM (inactive)
- GI50 (A549): > 100 µM (inactive)
- GI50 (SF-295): > 100 µM (inactive)
- GI50 (OVCAR-8): > 100 µM (inactive)
- GI50 (SK-MEL-28): > 100 µM (inactive)
- GI50 (KM12): > 100 µM (inactive)
- GI50 (M19-MEL): > 100 µM (inactive)
- GI50 (SR): > 100 µM (inactive)
- GI50 (RPMI-8226): > 100 µM (inactive)
- GI50 (COLO 205): > 100 µM (inactive)
- GI50 (MOLT-4): > 100 µM (inactive)
- GI50 (Malme-3M): > 100 µM (inactive)
- GI50 (786-0): > 100 µM (inactive)
- GI50 (RXF 393): > 100 µM (inactive)
- GI50 (HCT-15): > 100 µM
